Assay results: ChEMBL document CHEMBL1201862, “PubChem BioAssay data set” (2004)
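The compound was tested at five concentrations on cells cultured in 96-well plates, with a 48-hour exposure period. The concentration for 50% growth inhibition is given as GI50.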 Activity calls are given as the source filed them. Rule as the data show it: active = GI50 up to about 1.1 µM and inactive = higher.

Legend:
Assay in all cases: inhibition of tumour cell growth, NCI panel, 48 h
[1] = tested on: A498
[2] = tested on: A549
[3] = tested on: ACHN
[4] = tested on: CCRF-CEM
[5] = tested on: HCC 2998
[6] = tested on: HOP-62
[7] = tested on: HT-29
[8] = tested on: KM12
[9] = tested on: LOX IMVI
[10] = tested on: M14
[11] = tested on: MCF7
[12] = tested on: NCI-H460
[13] = tested on: OVCAR-8
[14] = tested on: SK-OV-3
[15] = tested on: SN12C
[16] = tested on: SNB-19
[17] = tested on: SNB-75
[18] = tested on: SW-620
[19] = tested on: U-251
[20] = tested on: UO-31

Row | Compound | GI50 [1] | GI50 [2] | GI50 [3] | GI50 [4] | GI50 [5] | GI50 [6] | GI50 [7] | GI50 [8] | GI50 [9] | GI50 [10] | GI50 [11] | GI50 [12] | GI50 [13] | GI50 [14] | GI50 [15] | GI50 [16] | GI50 [17] | GI50 [18] | GI50 [19] | GI50 [20]
1 | CCc1ccc(CCC(=O)O)nc1 | > 100 µM (inactive) | > 100 µM (inactive) | > 100 µM (inactive) | > 100 µM (inactive) | > 100 µM (inactive) | > 100 µM (inactive) | > 100 µM (inactive) | > 100 µM (inactive) | > 100 µM (inactive) | > 100 µM (inactive) | > 100 µM (inactive) | > 100 µM (inactive) | > 100 µM (inactive) | > 100 µM (inactive) | > 100 µM (inactive) | > 100 µM (inactive) | > 100 µM (inactive) | > 100 µM (inactive) | > 100 µM (inactive) | > 100 µM (inactive)
2 | C=C1CC23CCC4C(C)(C(=O)O)CCCC4(C)C2CCC1C3 (stereo not given) | 39.5 µM (inactive) | 35.5 µM (inactive) | 36.5 µM (inactive) | 25.1 µM (inactive) | 17.1 µM (inactive) | > 100 µM (inactive) | 42.7 µM (inactive) | 41.6 µM (inactive) | 30.7 µM (inactive) | 56 µM (inactive) | 47.3 µM (inactive) | 21 µM (inactive) | 41.7 µM (inactive) | 44.5 µM (inactive) | 38 µM (inactive) | 53.1 µM (inactive) | 47.8 µM (inactive) | 30.3 µM (inactive) | 48.1 µM (inactive) | 28.8 µM (inactive)
3 | CC(=O)O[C@H]1C#C/C=C\C#CC[C@@H]2C(=O)N[C@@H]12 | 21.6 µM (inactive) | 28.7 µM (inactive) | 3.5 µM (inactive) | 4.13 µM (inactive) | 25.1 µM (inactive) | 7.94 µM (inactive) | > 49.8 µM (inactive) | > 100 µM (inactive) | 7.78 µM (inactive) | 43.8 µM (inactive) | 4 µM (inactive) | 0.0382 µM (active) | 19.8 µM (inactive) | 57.8 µM (inactive) | 26 µM (inactive) | 31.3 µM (inactive) | 28.1 µM (inactive) | > 51.3 µM (inactive) | 20.9 µM (inactive) | 3.13 µM (inactive)
4 | COC(=O)[C@]1(c2cc3ccccc3[nH]2)CC2CN(C(=O)OCc3ccccc3)C1CC2=O (stereo not given in full) | 20 µM (inactive) | 23.3 µM (inactive) | 26.6 µM (inactive) | 28.2 µM (inactive) | 35 µM (inactive) | 43.2 µM (inactive) | 15.5 µM (inactive) | 26.9 µM (inactive) | 22.5 µM (inactive) | 30.5 µM (inactive) | 16.7 µM (inactive) | 24.4 µM (inactive) | 26.7 µM (inactive) | 33.4 µM (inactive) | 17.4 µM (inactive) | 59.7 µM (inactive) | 16.5 µM (inactive) | 29.6 µM (inactive) | 15.8 µM (inactive) | 21.3 µM (inactive)
